# Reference: patent US20210268017A1, “MOLECULAR HYDROGEN-CONTAINING COMPOSITION FOR PREVENTION AND/OR IMPROVEMENT OF PNEUMONIA” (MiZ Company Limited, priority 2020, published 2021)
# Experiments:
# [1] = system: chronic bronchitis and obstructive lung bronchitis; conditions: mice; earlier study; cited from earlier work
# interstitial pneumonia = conditions: patient; drip infusion 1 ppm hydrogen 250 ml plus hydrogen gas inhalation (6 to 7%, 120 ml/min) 30 to 60 minutes once weekly for 8 weeks
# Protocol: A patient who was diagnosed as having interstitial pneumonia received a drip infusion of hydrogen (1 ppm hydrogen, 250 ml) and inhalation of hydrogen gas over 30 minutes to 60 minutes once weekly for 8 weeks. MHG-2000α manufactured by MiZ Company Limited (hydrogen gas concentration 6 to 7%, 120 ml/min) was used for inhalation of a hydrogen gas.
# [2] = room temperature, normal pressure; also printed as 1.6 mg/L; cited from earlier work
structure (smiles),measurement,setting,value
"[HH] [hydrogen, molecular hydrogen]",effect on chronic bronchitis and obstructive lung bronchitis,[1],improved chronic bronchitis and obstructive lung bronchitis
same,"improvement of interstitial pneumonia, confirmed by disappearance of ground-glass opacity in the CT finding",interstitial pneumonia,Significant improvement
same,concentration of hydrogen dissolved in water,[2],approximately 1.6 ppm
